Results published in PMC12457078, “Inhibition of soluble epoxide hydrolase in endotoxin induced pig lung injury” (Frontiers in Pharmacology, 2025).
Where “and” joins values, the source holds several entries; their conditions need not be identical. Equal entries are not always repeated. Entries after “also recorded” stand apart in the source; their conditions may differ. Where two headings read alike, the source gives them in different places.

Columns and labels:
[1] = AEPU blood concentrations in LPS-treated pigs; type: in vivo, pig; settings: for AEPU conc, In 10uL blood / AEPU conc, In analyte: listed as AEPU
Protocol: One animal served as a pharmacokinetic pilot, with arterial and venous catheters placed in a cut-down in the neck. The remaining 21 animals were used for the randomized study (Figure 1). After intubation and start of mechanical ventilation, a second auricular vein cannula was placed and infusion of either AEPU or placebo according to randomization was started. After 2 h of infusion of AEPU or placebo, an infusion of LPS was started. A bolus of 0.1 mg/kg was administered during 30 min after which the infusion rate was adjusted to 0.01 mg/kg/h. During the time between start of AEPU or placebo and LPS infusion, neck dissection was performed, exposing the v jugularis externa and carotid artery. A pulmonary artery introducer and an arterial cannula were placed in vein and artery respectively, and a pulmonary artery catheter introduced through the introducer and the tip placed in the correct position in the pulmonary artery placement guided by continuous invasive pressure monitoring or, when difficult, assisted by fluoroscopy. All surgical procedures were performed under sterile conditions.
AEPU was synthesized according to Kim et al. ([Kim et al., 2007]), delivered in 60 mg vials and dissolved in 30 mL pure ethanol as a co-solvent, of which either 20 mL was added to 980 mL of sodium chloride 9 mg/mL or 8 mL–392 mL sodium chloride, creating a solution of 0.04 mg/mL AEPU and 2% ethanol. The placebo infusion was prepared by adding either 20 mL of pure ethanol to 980 mL of sodium chloride 9 mg/mL or 8 mL of pure ethanol to 392 mL sodium chloride, creating a 2% ethanol solution. Each animal received an infusion of either 0.1 mg/kg/h AEPU or the corresponding volume of placebo solution.
All animals were monitored with pulse oximetry, heart rate, ECG, systemic arterial blood pressure (ABP), pulmonary arterial pressure (PAP), central venous pressure (CVP) temperature, tidal volumes, respiratory rate and end tidal carbon dioxide. At baseline, and at 3 h, 6 h and at the end of the experiment, pulmonary capillary wedge pressure (PCWP) was measured together with arterial and venous blood gas analyses, as well as cardiac output calculations. Routine chemistry, including creatinine, bilirubin, glucose, electrolytes were collected at baseline and at the end of the experiment (Vetscan VS2®, Abaxis, Griesheim, Germany). Blood samples for measurement of AEPU plasma concentrations, as well as oxylipins (i.e., EpETrEs and their DiHETrE corresponding diols as well as related compounds with other polyunsaturated fatty acid precursors), were collected at baseline, 6 h and at the end of the experiment. Oxylipin analysis was performed according to a previously published protocol ([Gouveia-Figueira and Nording, 2015]).

lung injury = assay: histological evaluation of lung biopsies (four graded scale 0-3); type: in vivo, pig
Source text: After euthanasia, the chest was opened and two approximately 2 × 1 × 1 cm pieces of lung tissue was cut from the left lung 3 cm from the hilus. One piece was immediately put in formaldehyde solution for later routine preparation for histological evaluation in hematoxylin and eosin staining. A pathologist, blinded for treatment group, evaluated the severity of lung injury in specimens on a four graded scale: 0 = no lung injury, 1 = mild lung injury, 2 = moderate lung injury and 3 = severe lung injury.

[2] = liver microsomal assay (metabolic stability); type: in vitro ADME, pig
Protocol: To further characterize the inhibitors with regard to suitability for administration in pigs, a microsomal assay was used to determine metabolic stability ([Ackley et al., 2004]) for a subset of eight inhibitors chosen for their potency and availability. Microsomal preparations from pig liver were purchased from XenoTech (Kansas City, KS, US). Microsomes, buffer and NADPH generating system were combined, and then the inhibitor was added. The reaction was stopped after 35 min with ice cold acetonitrile containing internal standard (12-[[(cyclohexylamino)carbonyl]amino]-dodecanoic acid). The amount left of parent inhibitor was determined with LC-MS/MS.

Compound: CCOCCOCCOCCCCCNC(=O)NC12CC3CC(CC(C3)C1)C2 [Compound 950]
- 950 in blood spots ([1]; 6 h, individual pigs): 61 nM and 53 nM and 118 nM and 49 nM and 77 nM and 123 nM and 162 nM and 99 nM and 66 nM
- 950 in blood spots ([1]; 9 h, individual pigs): 163 nM and 42 nM and 48 nM and 79 nM and 172 nM and 149 nM
- concentration at 9 h ([1]; LPS start, average of pigs, read-out: 950 in blood spots, Average): 62 nM
- 950 in blood spots ([1]; LPS start, individual pigs): 51 nM and 47 nM and 84 nM and 48 nM and 63 nM and 96 nM and 53 nM and 65 nM and 50 nM
- concentration at 6 h ([1]; pig, whole blood (blood spots), intravenous, 0.1 mg/kg/h, 6 h, average of pigs, read-out: 950 in blood spots, Average): 90 nM
- concentration at 9 h ([1]; pig, whole blood (blood spots), intravenous, 0.1 mg/kg/h, 9 h, average of pigs, read-out: 950 in blood spots, Average): 109 nM
- AEPU conc, In 10uL blood ([1]; sample _6, individual pigs): 64.4 ng/mL and 39.4 ng/mL and 26.3 ng/mL and 24.4 ng/mL and 20.9 ng/mL and 46.8 ng/mL and 19.5 ng/mL and 30.4 ng/mL and 48.8 ng/mL
- AEPU conc, In analyte ([1]; sample _6, individual pigs): 12.9 ng/mL and 7.9 ng/mL and 5.3 ng/mL and 4.9 ng/mL and 4.2 ng/mL and 9.4 ng/mL and 3.9 ng/mL and 6.1 ng/mL and 9.8 ng/mL
- AEPU conc, In 10uL blood ([1]; sample _12, individual pigs): 68.1 ng/mL and 58.9 ng/mL and 0.0 ng/mL and 64.5 ng/mL and 16.7 ng/mL and 19.0 ng/mL and 31.2 ng/mL
- AEPU conc, In analyte ([1]; sample _12, individual pigs): 13.6 ng/mL and 11.8 ng/mL and 12.9 ng/mL and 3.3 ng/mL and 3.8 ng/mL and 6.2 ng/mL
- AEPU conc, In 10uL blood ([1]; sample _BL, individual pigs): 21.0 ng/mL and 25.7 ng/mL and 19.7 ng/mL and 20.3 ng/mL and 18.6 ng/mL and 33.4 ng/mL and 19.2 ng/mL and 25.1 ng/mL and 38.0 ng/mL
- AEPU conc, In analyte ([1]; sample _BL, individual pigs): 4.2 ng/mL and 5.1 ng/mL and 3.9 ng/mL and 4.1 ng/mL and 3.7 ng/mL and 6.7 ng/mL and 3.8 ng/mL and 5.0 ng/mL and 7.6 ng/mL
- lungskada (lung injury; histology score, per case, listed as sEH-i 950): 3 and 2
- Lung injury (lung injury; histology, grade in words, per case, listed as sEH-i 950): Severe; also recorded: Moderate
- Histological injury score (lung injury; scale 0-3, AEPU group): 2.7 (2–3)
- metabolic stability [2]: low
